Data published in patent publication US11590116B2 (THERAVANCE BIOPHARMA R&D IP, LLC, priority 2019, dated 2023).

Experiments:
[1] = test system: TGF-β-stimulated SMAD3 phosphorylation in BEAS-2B cells; test: Cellular ALK5 potency assay, inhibition of TGF-β stimulated pSMAD3 formation in BEAS-2B cells; format: cell-based; details: Homo sapiens; inhibition of TGF-β stimulated pSMAD3 formation, BEAS-2B cells; read-out: BEAS2B pIC50 (converted)
Procedure, shortened: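 BEAS-2B human lung epithelial cells, seeded overnight, were pre-treated with compound in HBSS/25 mM HEPES/1% BSA for 1 h at 37 °C, then stimulated with TGF-β (final 10 ng/mL) for 30 min. Lysates were assayed for pSMAD3 by AlphaLISA; pIC50 came from dose-dependent signal change versus TGF-β-stimulated untreated cells.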

[2] = biological target: T1, recombinant human ALK5 (TGF-βR1) protein (Homo sapiens, UniProt P36897); test: Biochemical ALK5 (TGF-βR1) assay to measure pKi (LANCE Ultra ULight kinase assay); details: apparent pKi from pIC50 by Cheng-Prusoff, read-out: ALK5 pKi (converted)
T1 construct: purchased Life Technologies PR9075A
T1 sequence (P36897 34-503): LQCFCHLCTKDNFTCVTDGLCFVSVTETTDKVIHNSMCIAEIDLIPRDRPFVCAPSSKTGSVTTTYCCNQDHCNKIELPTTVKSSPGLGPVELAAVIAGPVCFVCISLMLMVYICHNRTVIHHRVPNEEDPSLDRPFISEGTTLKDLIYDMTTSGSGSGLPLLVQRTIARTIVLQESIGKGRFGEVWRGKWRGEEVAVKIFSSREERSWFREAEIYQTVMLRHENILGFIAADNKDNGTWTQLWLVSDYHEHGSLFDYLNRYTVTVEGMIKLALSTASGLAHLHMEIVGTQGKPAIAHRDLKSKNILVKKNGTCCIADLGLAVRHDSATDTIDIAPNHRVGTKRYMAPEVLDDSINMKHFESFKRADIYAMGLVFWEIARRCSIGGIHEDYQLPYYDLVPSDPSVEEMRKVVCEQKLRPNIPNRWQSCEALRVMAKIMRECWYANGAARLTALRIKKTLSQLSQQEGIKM
Procedure, shortened: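 After a 60 min room-temperature preincubation of ALK5 with compound, phosphorylation proceeds 60 min at 37 °C on ATP addition (125 μM as 5× stock). Detection: Eu-labelled phospho-Thr1342 Topo IIα antibody in EDTA buffer, pH 7.0; emission 665 nm.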

Ki [2] | Compound | IC50 [1]
3.98 to 31.6 nM | Cc1cccc(-c2[nH]cnc2-c2ccc3ncc(-c4cccc5c4CNCC5)cc3c2)n1 [Compound 493, 6-[5-(6-methyl-2-pyridyl)-1H-imidazol-4-yl]-3-(1,2,3,4-tetrahydroisoquinolin-8-yl)quinoline] | 200 to 1260 nM
0.0398 to 0.316 nM | Cc1cccc(-c2[nH]ncc2-c2ccc3ncc(C(=O)OCC4CCNCC4)cc3n2)n1 [Compound 211, 4-piperidylmethyl 6-[5-(6-methyl-2-pyridyl)-1H-pyrazol-4-yl]-1,5-naphthyridine-3-carboxylate] | 25.1 to 158 nM
< 0.0316 nM | Cc1nc(-c2n[nH]cc2-c2ccc3ncc(N4CCN(CCO)CC4)cc3n2)ccc1F [Compound 509, 2-[4-[6-[3-(5-fluoro-6-methyl-2-pyridyl)-1H-pyrazol-4-yl]-1,5-naphthyridin-3-yl]piperazin-1-yl]ethanol] | 25.1 to 158 nM
0.0398 to 0.316 nM | Cc1cccc(-c2n[nH]cc2-c2ccc3ncc(C4=CCC(N(C)C)CC4)cc3n2)n1 (stereo not shown) [Compound 685, N,N-dimethyl-4-[6-[3-(6-methyl-2-pyridyl)-1H-pyrazol-4-yl]-1,5-naphthyridin-3-yl]cyclohex-3-en-1-amine] | 25.1 to 158 nM
0.0398 to 0.316 nM | Cc1cccc(-c2[nH]cnc2-c2ccc3ncc(-c4cccc(C(=O)OC5CCNCC5)n4)cc3c2)n1 [Compound 1062, 4-piperidyl 6-[6-[5-(6-methyl-2-pyridyl)-1H-imidazol-4-yl]-3-quinolyl]pyridine-2-carboxylate] | 25.1 to 158 nM
< 0.0316 nM | COC(=O)c1coc(-c2cnc3ccc(-c4c[nH]nc4-c4cccc(C)n4)nc3c2)n1 [Compound 582, methyl 2-[6-[3-(6-methyl-2-pyridyl)-1H-pyrazol-4-yl]-1,5-naphthyridin-3-yl]oxazole-4-carboxylate] | 25.1 to 158 nM
0.0398 to 0.316 nM | Cc1cccc(-c2[nH]cnc2-c2ccc3ncc(-c4cnc5c(c4)CCNC5)cc3c2)n1 [Compound 721, 3-[6-[5-(6-methyl-2-pyridyl)-1H-imidazol-4-yl]-3-quinolyl]-5,6,7,8-tetrahydro-1,7-naphthyridine] | 25.1 to 158 nM
0.0398 to 0.316 nM | Cc1cccc(-c2n[nH]cc2-c2ccc3ncc(-c4nc5c(s4)CNCC5)cc3n2)n1 [Compound 175, 2-[6-[3-(6-methyl-2-pyridyl)-1H-pyrazol-4-yl]-1,5-naphthyridin-3-yl]-4,5,6,7-tetrahydrothiazolo[5,4-c]pyridine] | 25.1 to 158 nM
0.0398 to 0.316 nM | Cc1cccc(-c2n[nH]cc2-c2ccc3ncc(Nc4ccc(N5CCN(C)CC5)cn4)cc3c2)n1 [Compound 666, N-[5-(4-methylpiperazin-1-yl)-2-pyridyl]-6-[3-(6-methyl-2-pyridyl)-1H-pyrazol-4-yl]quinolin-3-amine] | 25.1 to 158 nM
< 0.0316 nM | Cc1nc(-c2n[nH]cc2-c2ccc3ncc(-c4nc5c([nH]4)CCNCC5)cc3n2)ccc1F [Compound 611, 2-[6-[3-(5-fluoro-6-methyl-2-pyridyl)-1H-pyrazol-4-yl]-1,5-naphthyridin-3-yl]-1,4,5,6,7,8-hexahydroimidazo[4,5-d]azepine] | 1580 to 10000 nM
0.0398 to 0.316 nM | CNC1CN(c2cnc3ccc(-c4nc[nH]c4-c4cccc(C)n4)cc3c2)C1 [Compound 614, N-methyl-1-[6-[5-(6-methyl-2-pyridyl)-1H-imidazol-4-yl]-3-quinolyl]azetidin-3-amine] | 25.1 to 158 nM
0.0398 to 0.316 nM | Cc1cccc(-c2[nH]cnc2-c2ccc3ncc(C4=C[C@@H](C)N[C@H](C)C4)cc3c2)n1 [Compound 8, 3-[(2R,6R)-2,6-dimethyl-1,2,3,6-tetrahydropyridin-4-yl]-6-[5-(6-methyl-2-pyridyl)-1H-imidazol-4-yl]quinoline] | 25.1 to 158 nM
< 0.0316 nM | CNCCn1cc(-c2cnc3ccc(-c4c[nH]nc4-c4cccc(C(F)F)n4)nc3c2)cn1 [Compound 481, 2-[4-[6-[3-[6-(difluoromethyl)-2-pyridyl]-1H-pyrazol-4-yl]-1,5-naphthyridin-3-yl]pyrazol-1-yl]-N-methyl-ethanamine] | 25.1 to 158 nM
0.0398 to 0.316 nM | Cc1cccc(-c2n[nH]cc2-c2ccc3ncc(-c4nn[nH]n4)cc3n2)n1 [Compound 177, 2-[3-(6-methyl-2-pyridyl)-1H-pyrazol-4-yl]-7-(2H-tetrazol-5-yl)-1,5-naphthyridine] | 1580 to 10000 nM
0.0398 to 0.316 nM | Cc1cccc(-c2[nH]cnc2-c2ccc3ncc(-c4csc(C(=O)OCCN5CCC[C@@H](N)C5)c4)cc3c2)n1 [Compound 1178, 2-[(3R)-3-amino-1-piperidyl]ethyl 4-[6-[5-(6-methyl-2-pyridyl)-1H-imidazol-4-yl]-3-quinolyl]thiophene-2-carboxylate] | 25.1 to 158 nM
3.98 to 31.6 nM | Cc1nc(-c2n[nH]cc2-c2ccc3ncc(-c4nnc5n4CCNC5)cc3n2)ccc1F [Compound 631, 2-[3-(5-fluoro-6-methyl-2-pyridyl)-1H-pyrazol-4-yl]-7-(5,6,7,8-tetrahydro-[1,2,4]triazolo[4,3-a]pyrazin-3-yl)-1,5-naphthyridine] | 1580 to 10000 nM
0.0398 to 0.316 nM | Cc1cccc(-c2[nH]cnc2-c2ccc3ncc(-c4cccc(C(=O)OCC5CNC5)c4)cc3c2)n1 [Compound 231, azetidin-3-ylmethyl 3-[6-[5-(6-methyl-2-pyridyl)-1H-imidazol-4-yl]-3-quinolyl]benzoate] | 25.1 to 158 nM
0.0398 to 0.316 nM | Cc1nc(-c2n[nH]cc2-c2ccc3ncc(-c4cnn(CC5CC(N)C5)c4)cc3n2)ccc1F (stereo not shown) [Compound 455, 3-[[4-[6-[3-(5-fluoro-6-methyl-2-pyridyl)-1H-pyrazol-4-yl]-1,5-naphthyridin-3-yl]pyrazol-1-yl]methyl]cyclobutanamine] | 25.1 to 158 nM
0.0398 to 0.316 nM | Cc1cccc(-c2[nH]cnc2-c2ccc3ncc(-c4nc(C(=O)O)cs4)cc3c2)n1 [Compound 797, 2-(6-(5-(6-methylpyridin-2-yl)-1H-imidazol-4-yl)quinolin-3-yl)thiazole-4-carboxylic acid] | 1580 to 10000 nM
0.0398 to 0.316 nM | Cc1cccc(-c2[nH]cnc2-c2ccc3ncc(-c4cn5c(n4)CNCC5)cc3n2)n1 [Compound 414, 2-(5-(6-methylpyridin-2-yl)-1H-imidazol-4-yl)-7-(5,6,7,8-tetrahydroimidazo[1,2-a]pyrazin-2-yl)-1,5-naphthyridine] | 25.1 to 158 nM
0.0398 to 0.316 nM | Cc1cccc(-c2[nH]cnc2-c2ccc3ncc(C4=CCN(C(=O)C5CNC5)CC4)cc3c2)n1 [Compound 1036, azetidin-3-yl-[4-[6-[5-(6-methyl-2-pyridyl)-1H-imidazol-4-yl]-3-quinolyl]-3,6-dihydro-2H-pyridin-1-yl]methanone] | 200 to 1260 nM
< 0.0316 nM | Cc1nc(-c2n[nH]cc2-c2ccc3ncc(-c4ccc5c(n4)CCNC5)cc3n2)ccc1F [Compound 34, 2-[3-(5-fluoro-6-methyl-2-pyridyl)-1H-pyrazol-4-yl]-7-(5,6,7,8-tetrahydro-1,6-naphthyridin-2-yl)-1,5-naphthyridine] | 25.1 to 158 nM

Compound | Ki [2] | IC50 [1]
Cc1cccc(-c2[nH]cnc2-c2ccc3ncc(C(=O)OCC45CCC(CC4)N5)cc3c2)n1 [Compound 780, 7-azabicyclo[2.2.1]heptan-1-ylmethyl 6-[5-(6-methyl-2-pyridyl)-1H-imidazol-4-yl]quinoline-3-carboxylate] | 0.398 to 3.16 nM | 25.1 to 158 nM
